According to PMC7737769, “Pharmacological inhibition of syntenin PDZ2 domain impairs breast cancer cell activities and exosome loading with syndecan and EpCAM cargo” (Journal of Extracellular Vesicles, 2020):
Where two headings read alike, the source gives them in different places. One block for each molecule: values may come before it.

Experiments:
MCF‐7 cells = test: Mammosphere formation assay, MCF-7; format: cell-based; details: wild-type MCF-7, 50 & 100 µM
Protocol: MCF‐7 and MCF‐7 SyntKO cells were treated with increasing concentrations of compounds C58, SyntOFF (50‐100µM) or DMSO 0.2% as control. After 24 h, cells were trypsinized, re‐suspended in normal growth media and washed three times in PBS to remove serum. Cell concentration was determined using the LUNA-FL Automated Fluorescence Cell Counter (Logos Biosystem) and cells were then seeded at 1000 cells/ml in 6‐well Ultra low Adherence plates (Corning Inc., Corning, NY) in MEBM medium (Lonza) supplemented with 5 µg/ml insulin (Sigma‐Aldrich), 20 ng/ml recombinant epidermal growth factor (Sigma‐Aldrich), 1X of B27 supplement (Invitrogen, Carlsbad, CA, USA), 0.5 µg/ml hydrocortisone (Sigma‐Aldrich), 1X of β‐mercaptoethanol and 1% penicillin/streptomycin (Gibco). Fresh medium was added into the plates every 3–4 days. The number of spheres (diameter > 50 µm) was evaluated under microscope on days 7–10. Sphere formation was calculated as the number of spheres divided by the original number of cells seeded and normalized to control.

Erbin‐P0071 complex = tested on: T1, Erbin‐P0071 complex; test: HTRF assay, Erbin-P0071 interaction; format: biochemical, human
T1 construct: human Erbin PDZ domain; made in house; host or cells: E. coli BL21 (DE3)
Protocol: (§1) HTRF assays were performed in white 96Well Small VolumeHiBase Polystyrene Microplates (Greiner) with a total working volume of […], as described previously (Milhas et al., 2016). Briefly, compounds were firstly dispensed into the wells at 400 µM for the primary screen or with serial DMSO dilutions for IC50 measurement assays. Primary screening assays have been performed in monoplicate while IC50 measurements were performed in triplicates. All HTRF reagents were purchased from CisBio Bioassays and reconstituted according to the supplier protocols. The plates were spun for 3 min at 500 × g and then incubated at 4°C for 16 h. The HTRF signals were recorded on a POLAR star Omega plate reader (BMG Labtech) with an excitation filter at 337 nm and fluorescence wavelength measurement at 620 and 665 nm, an integration delay of 60 µs and an integration time of 400 µs. Results were analysed with a two‐wavelength signal ratio: [intensity (665 nm)/intensity (620 nm)] × 10^4. Percentage of inhibition was calculated using the following equation: % inhibition = [(compound signal)–(min signal)]/[(max signal)–(min signal)] × 100, where ‘max signal’ is the signal ratio with the compound vehicle alone (DMSO) and ‘min signal’ the signal ratio without protein B. For IC50 measurements, values were normalized and fitted with Prism (GraphPad software) using the following equation: Y = 100/(1+((X/ IC50)ˆHill slope)).
(§2) The search strategy for PDZ2 syntenin inhibitors was based on the PDZ targeted library developed from Enamine compound collection. The PDZ targeted library was developed to cover virtually all PDZ domains. Consequently, to create the syntenin PDZ2 focused library we used two independent paths: docking of the PDZ targeted library against structures of syntenin PDZ2 available in Protein Data Bank and a random selection from the PDZ targeted library. The docking has produced 21 virtual hits, which were added to 118 randomly selected compounds (10% of the pan PDZ library). The resultant set of 139 compounds, syntenin PDZ library was subjected to experimental validation. The primary screen was performed at 400µM using a previously validated Homogeneous Time Resolved Fluorescence (HTRF) assay (Milhas et al., 2016). HTRF is based on Fluorescence Resonance Energy Transfer (FRET) between two fluorescent reagents. In the present case, Anti‐GST‐Terbium antibody and streptavidin‐bound Dynamic2 were used as donor and acceptor respectively. Interactions between GST PDZ‐fusion proteins and biotinylated peptides containing PDZ binding motifs were challenged with the potential inhibitors. In parallel, control experiments were performed with a biotinylated‐GST to verify that compounds were not interfering with the FRET signal in a non‐specific manner. To identify inhibitors of syntenin PDZ interactions, we tested for the effect of the 139 compounds on syntenin‐SDC2 and syntenin‐Frizzled7 complexes (Figure 1a; Table S1). When the HTRF signal dropped below 0.9, inhibition was considered as effective. […] Noteworthy, these compounds had no effect on other PDZ complexes like GRASP55‐JAM‐B or GRASP55‐JAM‐C and Erbin‐Erbb2 or Erbin‐P0071 (Figure 1c).

[1] = target: T2, syntenin‐PDZ tandem plus C‐terminal domain (Homo sapiens, UniProt O00560); test: Surface plasmon resonance (BIAcore), syntenin PDZ tandem plus C-terminal domain; format: binding
T2 construct: made in house; host or cells: Biotin XCell F' E. coli cells
T2 sequence (O00560 107-298): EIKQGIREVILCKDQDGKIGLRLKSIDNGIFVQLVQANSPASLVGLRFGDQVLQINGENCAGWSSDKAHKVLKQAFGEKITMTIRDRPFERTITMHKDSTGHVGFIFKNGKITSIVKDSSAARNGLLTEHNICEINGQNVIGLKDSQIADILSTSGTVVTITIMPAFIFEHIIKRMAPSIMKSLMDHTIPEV
Protocol: All SPR experiments were conducted with a BIAcore T200 instrument (GE Healthcare), at 25°C. A total of 8000 resonance units (RU) of biotinylated ligands (N‐terminal 6xHis tagged biotinylated syntenin tandem, syntenin tandem with C terminus, GRASP55 tandem or GST as control) were immobilized on a streptavidin‐sensor chip (GE Healthcare). Analytes (C58 and SyntOFF compounds) were perfused at 30 µl per min in running buffer (10 mM HEPES pH 7.4, 150 mM NaCl, 0.005% Tween20) at different concentrations. The reference channel was N‐terminal 6xHis tagged biotinylated GST protein. The injection time was 240 s, long enough for the sensorgrams to reach equilibrium, and the dissociation time was 240 s. To carry out these SPR experiments, we employed the method known as ‘single‐cycle kinetics’ described in 2006 by Karlsson and co‐workers (Karlsson, Katsamba, Nordin, Pol, & Myszka, 2006). It consists in injecting the analyte at increasing concentrations, without regeneration steps between each sample injection to avoid that folded‐proteins can be damaged after regeneration steps. Equilibrium dissociation constants (KD) were calculated by fitting the data to a simple Langmuir binding isotherm using GraphPad Prism. For determination of the apparent KD, signals obtained at equilibrium were plotted as a function of compound concentration. […]

GRASP55‐JAM‐B complex = tested on: T3, GRASP55‐JAM‐B complex; test: HTRF assay, GRASP55-JAM-B interaction; format: biochemical, human
T3 construct: Human GRASP55 tandem PDZ; made in house; host or cells: E. coli BL21 (DE3)
Protocol: as §1, §2

Structure (SMILES): CC(C)[C@H](NC(=O)CSc1ccc(Cl)cc1)C(=O)O [Compound C58]
mammosphere formation (MCF‐7 cells): decreases
GST-Erbin P0071 (signal ratio) (Erbin‐P0071 complex; 400µM compound, Figure 1c): 1
Kd ([1]; compound in PBS, read-out: apparent KD, syntenin‐PDZ tandem plus C‐terminal domain): 886 µM
GST-GRASP JAM-B (signal ratio) (GRASP55‐JAM‐B complex; 400µM compound, Figure 1c): 1.1

Kd ([1]; DMSO as vehicle, read-out: KD, syntenin‐PDZ tandem plus C‐terminal domain): 130 µM
Structure (SMILES): CC(C)[C@H](NC(=O)CCSc1ccc(Cl)cc1)C(=O)O [SyntOFF, (S)‐2‐(3‐(4‐chlorophenylthio)propanamido)‐3‐methylbutanoic acid]
mammosphere formation (MCF‐7 cells): decreases
effect on Erbin‐P0071 complex (Erbin‐P0071 complex; HTRF dose-response, Figure S2a): not affecting
effect on GRASP55‐JAM‐B complex (GRASP55‐JAM‐B complex; HTRF dose-response, Figure S2b): not affecting
